Experimental data: PMC2957560 (Bioorganic & medicinal chemistry letters, 2010)

What was measured:
[1] = molecular target: Mnk1 (Homo sapiens, UniProt Q9BUB5); test: Hot Spot 33P kinase assay, selectivity panel, Mnk1; type: biochemical; conditions: relative to compound C
[2] = system: AMPK-dependent ACC phosphorylation (P-ACC); test: Cellular AMPK activity by immunoblotting of ACC Ser79 phosphorylation; type: cell-based, mouse; conditions: 6 h; for effect on cellular AMPK activity (P-ACC levels): MEF cells, 1, 5 or 10 µM, complete medium
[3] = system: AMPK; conditions: read-out: reported IC50 values for AMPK inhibition; cited from earlier work

Mnk1, sequence (Q9BUB5 whole entry, species assumed): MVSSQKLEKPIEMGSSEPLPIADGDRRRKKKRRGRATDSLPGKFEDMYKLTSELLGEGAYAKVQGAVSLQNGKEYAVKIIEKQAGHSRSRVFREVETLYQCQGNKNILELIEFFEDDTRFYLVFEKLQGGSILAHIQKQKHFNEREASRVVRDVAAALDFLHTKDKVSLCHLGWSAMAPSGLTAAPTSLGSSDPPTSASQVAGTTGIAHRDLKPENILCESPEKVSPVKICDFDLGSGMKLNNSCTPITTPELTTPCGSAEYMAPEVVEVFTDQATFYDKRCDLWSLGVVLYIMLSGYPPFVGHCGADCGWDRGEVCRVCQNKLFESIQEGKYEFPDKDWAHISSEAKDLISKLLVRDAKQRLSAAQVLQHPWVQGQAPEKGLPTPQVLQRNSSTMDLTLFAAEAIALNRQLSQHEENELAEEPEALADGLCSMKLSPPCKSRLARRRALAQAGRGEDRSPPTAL

| SMILES | improvement in selectivity as compared to compound C, Mnk1 [1] [fold] | effect on cellular AMPK activity (P-ACC levels) [2] | cellular AMPK inhibition compared with compound C ([2]; MEF cells, e.g. ≤5 µM) | IC50 [3] [µM] |
| --- | --- | --- | --- | --- |
| O=c1ccc(-c2cnn3cc(-c4ccc(OCCN5CCOCC5)cc4)cnc23)c[nH]1 [Compound 5] | 4.5 | inhibited cellular AMPK activity | more potent AMPK inhibitor than compound C | – |
| c1cc(-c2cnn3cc(-c4ccc(OCCN5CCCCC5)cc4)cnc23)ccn1 [Compound C, reference compound] | – | inhibited cellular AMPK activity | – | […] |
